From patent US20180271945A1, “UROCORTIN 2 ANALOGS AND USES THEREOF” (Research Development Foundation, priority 2009, published 2018)
Where two headings read alike, the source gives them in different places. No end group written: not given here. *: point of attachment. Acm = CC(=O)NC*

Tests used:
CRFR2 = target: T1, CRFR2 (Rattus norvegicus, UniProt P47866); assay: stimulation of cAMP accumulation in A7r5 cells; assay type: cell-based
T1 construct: A7r5 cells, which express CRFR2; endogenous in cells; host or cells: A7r5 cells
Protocol: Urocortin 2 precursors were overexpressed in various cell lines, and their function was evaluated. Pancreatic and skin cell lines were infected with mouse urocortin 2 (mUcn 2) lentivirus. The amino acid sequence of mouse urocortin 2 is provided as SEQ ID NO:10. […] The peptide was synthesized and bioactivity was determined by the stimulation of cAMP accumulation in A7r5 cells, which express CRFR2. […] It is possible that R^0mUcn 2 could be further processed by aminopeptidases to mUcn 2(1-38). Number of assays are depicted as a superscript.
The corresponding human analog, R^0hUcn 2, was synthesized.
The EC50S were calculated based on protein determination by immunoassay and chromatographic peak height.

[1] = QC reverse phase HPLC (trifluoroacetic acid/acetonitrile) as evidence of solubility/hydrophilicity; assay type: physicochemical; conditions: from reverse phase HPLC retention time
From the text: A peptide extended with a hydrophilic arginine residue such as R^0hUcn 2 is likely more soluble, and therefore, a better pharmaceutical agent, than hUcn 2(1-38). […]

[2] = A7r5 cells, EC50s calculated based on protein determination by immunoassay and chromatographic peak height, read-out: cAMP A7r5 (EC50)
[3] = A7r5 cells, which express CRFR2, range in brackets, number of assays as superscript, read-out: EC50 for stimulation of cAMP accumulation in A7r5 cells

T1 sequence (P47866 1-431 isoform P47866-2): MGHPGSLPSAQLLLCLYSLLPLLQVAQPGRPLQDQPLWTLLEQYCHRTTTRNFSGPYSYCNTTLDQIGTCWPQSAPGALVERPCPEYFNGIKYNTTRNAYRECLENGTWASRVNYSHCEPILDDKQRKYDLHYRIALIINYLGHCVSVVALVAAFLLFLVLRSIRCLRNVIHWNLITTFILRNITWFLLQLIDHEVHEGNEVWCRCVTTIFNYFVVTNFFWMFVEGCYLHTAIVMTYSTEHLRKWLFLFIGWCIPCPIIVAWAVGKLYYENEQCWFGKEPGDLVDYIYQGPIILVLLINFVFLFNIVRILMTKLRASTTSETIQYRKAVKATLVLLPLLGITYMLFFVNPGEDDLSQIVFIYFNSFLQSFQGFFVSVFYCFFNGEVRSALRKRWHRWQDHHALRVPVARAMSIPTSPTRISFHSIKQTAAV

## C(Acm)SPTRHPGSRIVLSLDVPIGLLQILLEQARARAAREQATTNARILARVGHC(Acm)-OH [[Cys^1,51 (Acm)]-hUcn 2(1-51)-OH)]
CRFR2; [2]
  EC50: 9.5 nM

## HPGSRIVLSLDVPIGLLQILLEQARARAAREQATTNARILARV-NH2 [SRP (HPGSR-hUcn 2)]
CRFR2; [2]
  EC50: 0.09 nM

## IPTFQLRPQNSPQTTPRPAASESPSAAPTWPWAAQSHCSPTRHPGSRIVLSLDVPIGLLQILLEQARARAAREQATTNARILARV-NH2 [hUcn 2 prohormone]
CRFR2
  EC50: 2.3 nM

## IVLSLDVPIGLLQILLEQARARAAREQATTNARILARV-OH [hUcn 2-OH]
CRFR2; [2]
  EC50: 90.4 nM

## IVLSLDVPIGLLQILLEQARARAAREQATTNARILARVG-OH [hUcn 2-G-OH]
CRFR2; [2]
  EC50: 6.3 nM

## IVLSLDVPIGLLQILLEQARARAAREQATTNARILARVGH-OH [hUcn 2-GH-OH]
CRFR2; [2]
  EC50: 2.9 nM

## IVLSLDVPIGLLQILLEQARARAAREQATTNARILARVGHC-OH [hUcn 2-GHC-OH]
CRFR2; [2]
  EC50: 13.9 nM

## RIVLSLDVPIGLLQILLEQARARAAREQATTNARILARV-NH2 [R^0-hUcn 2]
CRFR2; [3]
  EC50: 0.027 nM
[1]
  hydrophilicity compared with hUcn 2(1-38): significantly increased hydrophilicity

## RVILSLDVPIGLLRILLEQARYKAARNQAATNAQILAHV-NH2 [R^0-mUcn 2]
CRFR2; [3]
  EC50: 0.05 nM

## TPIPTFQLLPQNSLETTPSSVTSESSSGTTTGPSASWSNSKASPYLDTRVILSLDVPIGLLRILLEQARYKAARNQAATNAQILAHV-NH2 [mUcn 2 prohormone]
CRFR2
  EC50: 0.53 nM
